The values that follow come from patent publication US20120245224A1, “CANNABINOIDS FOR USE IN THE TREATMENT OF NEUROPATHIC PAIN” (GW Pharma Limited, priority 2006, published 2012).

Data set [1] relates to thermal hyperalgesia after chronic constriction injury (CCI) to the sciatic nerve. The data set is described as follows: Acute administration, thermal hyperalgesia (Hargreaves plantar test) in CCI rats. Format: in vivo, rat. Particulars: for Withdrawal latency: CCI rats 14 days after injury, THC 0.42 mg/kg, CBD 10 mg/kg; for mean pain relieving effect of the test article when compared to the vehicle as a percentage, Thermal Hyperalgesia: mean over the test period. The method, then: (§1) Painful neuropathy was induced in male Wistar rats weighing 200-220 g (Harlan, Italy). Animals were anaesthetized with sodium pentobarbital (60 mg kg^−1 i.p.) and submitted to a surgical procedure to induce neuropathic pain according to Bennet & Xie (1988).
(§2) This procedure was a chronic constriction injury (CCI) to the sciatic nerve, this was achieved by exposing the common sciatic nerve at the level of the mid thigh and, proximal to the sciatic nerves trifurcation, four ligatures were loosely tied around it with about 1 mm spacing so that the epineural circulation was preserved.
(§3) Sham animals (sciatic exposure without ligation) were used as controls.
(§4) The compounds tested were a cannabinoid-containing plant extract which contained a ratio of CBD:THC of approximately 24:1. From Table 1 this could also be described as a “CBD-containing plant extract”. The extract comprised CBD at a concentration of 10 mg/kg and THC at a concentration of 0.42 mg/kg. Pure cannabinoids CBD (at a concentration of 10 mg/kg) and THC (at a concentration of 0.42 mg/kg) were also used as test articles for comparison to the cannabinoid-containing plant extract.
(§5) The test compounds were dissolved in a 1:1:18 mixture of ethanol, cremophor and saline.
(§6) The acute administration of compounds was evaluated in rats treated with vehicle for one week and subsequently provided with the test article prior to the behavioural evaluations. The behavioural evaluations were performed at different times (between 30 min to 24 hours).
(§7) Thermal hyperalgesia was tested according to the Hargreaves procedure (Hargreaves et al., 1988) using the plantar test (Ugo Basile, Varese, Italy).
(§8) Briefly, animals were placed in a clear plexiglass box and allowed to acclimatise. A constant intensity radiant heat source was aimed at the midplantar area of the hind paw. The time, in seconds, from initial heat source activation until paw withdrawal was recorded.
Table 2 below details the data produced by the acute administration of the vehicle to the sham animals or administration of vehicle or test article to animals with CCI, 14 days after the injury occurred.

Data set [2] concerns mechanical allodynia after chronic constriction injury (CCI) to the sciatic nerve. Kind of data set: Acute administration, mechanical allodynia (Dynamic Plantar Aesthesiometer) in CCI rats. The format is in vivo, rat. Particulars: for Withdrawal threshold: CCI rats 14 days after injury, THC 0.42 mg/kg, CBD 10 mg/kg; for mean pain relieving effect of the test article when compared to the vehicle as a percentage, Mechanical Allodynia: mean over the test period. How it is done:
as §1, §2, §3, §4, §5, §6
(§9) Mechanical allodynia was assessed using the Dynamic Plantar Aesthesiometer (Ugo Basile, Varese, Italy). Particularly, animals were placed in a test cage with a wire mesh floor, and the tip of von Frey-type filament was applied to the middle of the plantar surface of the hind paw. The filament exerted an increasing force starting below the threshold of detection and increasing until the animal removed its paw. Withdrawal threshold was expressed as tolerance level in g.
Table 3 below details the data produced by the acute administration of the vehicle to the sham animals or administration of vehicle or test article to animals with CCI, 14 days after the injury occurred.

Data set [3] deals with thermal hyperalgesia after chronic constriction injury (CCI) to the sciatic nerve. Kind of data set: Repeated administration, thermal hyperalgesia (Hargreaves plantar test) in CCI rats. Particulars: for difference between the pain relieving values before and after treatment, Thermal Hyperalgesia: day 14 minus day 7. The format is in vivo, rat. How it is done:
as §1, §2, §3, §4, §5
(§10) In the repeated administration study the rats received the test compounds or the vehicle orally once a day for seven days, starting from the seventh day after the surgical procedure.
(§11) The animals pain response was monitored (i) before surgery, (ii) on day 7 (before starting the treatment) and (iii) on day 14 (24 hours after the last administration of the test article).
as §7, §8
Table 4 below details the data produced by the repeated administration of the vehicle to the sham animals or administration of vehicle or test article to animals with CCI. Test article or vehicle was administered 7 days after the chronic constriction injury was applied and was administered once a day for a further seven days.

Data set [4] has as its system mechanical allodynia after chronic constriction injury (CCI) to the sciatic nerve. The data set is described as follows: Repeated administration, mechanical allodynia (Dynamic Plantar Aesthesiometer) in CCI rats. Format: in vivo, rat. Particulars: for difference between the pain relieving values before and after treatment, Mechanical Allodynia: day 14 minus day 7. How it is done: as §1, §2, §3, §4, §5, §10, §11, §9
Table 5 below details the data produced by the repeated administration of the vehicle to the sham animals or administration of vehicle or test article to animals with CCI. Test article or vehicle was administered 7 days after the chronic constriction injury was applied and was administered once a day for a further seven days.

The test system of data set [5] is neuropathic pain model of chronic constriction injury of the rat sciatic nerve. Particulars: purified compound; thermal and mechanical hyperalgesia and mechanical allodynia; cited from earlier work.
The test system of data set [6] is patients taking carbamezepine. Particulars: cited from earlier work.
[7] abbreviates: day 0 (prior to CCI), baseline of the treatment group.
The mark [8] stands for this setting: day 7 after CCI (before drug treatment), baseline of the treatment group.
The mark [9] stands for this setting: day 14 after CCI (after 7 days of drug treatment, orally once a day; THC 0.42 mg/kg, CBD 10 mg/kg).
[10] abbreviates: repeated administration, 7 days.

Regarding `CCCCCc1cc(O)c2c(c1)OC(C)(C)[C@@H]1CCC(C)=C[C@@H]21` [THC, delta-9-tetrahydrocannabinol], the “pain relieving effect (in words), thermal hyperalgesia” value is listed as “increased the withdrawal latency over that of the vehicle treated animals” in data set [1] and “did not result in any pain relieving effect” in data set [3] (setting [10]). Besides, the Withdrawal latency in data set [1] (30 min after administration) is 11.0 s; in data set [1] (60 min after administration) it was 10.2 s; in data set [1] (90 min after administration), 9.8 s; in data set [1] (120 min after administration), 6.0 s; in data set [1] (150 min after administration), 5.0 s; in data set [1] (180 min after administration) it was 5.3 s. For the same molecule, the Withdrawal latency in data set [3] (setting [7]) was 9.8 s; in data set [3] (setting [8]) it was 5.8 s; in data set [3] (setting [9]) it was 4.8 s. Besides, the “mean pain relieving effect of the test article when compared to the vehicle as a percentage, Thermal Hyperalgesia” value in data set [1] is 47%. Besides, the Withdrawal threshold in data set [2] (30 min after administration) worked out at 12 g; in data set [2] (60 min after administration), 9 g; in data set [2] (90 min after administration), 15 g; in data set [2] (120 min after administration), 21 g; in data set [2] (150 min after administration), 13 g; in data set [2] (180 min after administration), 10 g. Also, the results for the Withdrawal threshold in data set [4] (setting [7]), in data set [4] (setting [8]) and in data set [4] (setting [9]) were 31 g, 12 g and 10 g, respectively. For the same molecule, in data set [2], the “mean pain relieving effect of the test article when compared to the vehicle as a percentage, Mechanical Allodynia” value was determined as 14%. In data set [2] (peak after 120 minutes), this molecule registered a peak withdrawal threshold of 20 g. Also, the “difference between the pain relieving values before and after treatment, Thermal Hyperalgesia” value in data set [3] (repeated administration) is -1.0 s. The “pain relieving effect (in words), mechanical allodynia” value in data set [4] (setting [10]) was “did not result in any pain relieving effect”. The “difference between the pain relieving values before and after treatment, Mechanical Allodynia” value in data set [4] (repeated administration) was -2 g.

As for `C=C(C)[C@@H]1CCC(C)=C[C@H]1c1c(O)cc(CCCCC)cc1O` [CBD, cannabidiol], in data set [1], the “pain relieving effect (in words), thermal hyperalgesia” value is recorded as “did not produce any pain relieving effects”. Also, the Withdrawal latency came out at 5.4 s in data set [1] (30 min after administration); 5.4 s in data set [1] (60 min after administration); 5.4 s in data set [1] (90 min after administration); 5.3 s in data set [1] (120 min after administration); 5.4 s in data set [1] (150 min after administration); 5.3 s in data set [1] (180 min after administration). The Withdrawal latency was determined as 10.4 s in data set [3] (setting [7]), 5.5 s in data set [3] (setting [8]) and 8.7 s in data set [3] (setting [9]). For the same molecule, the “mean pain relieving effect of the test article when compared to the vehicle as a percentage, Thermal Hyperalgesia” value in data set [1] is listed as −4%. The “pain relieving effect (in words), mechanical allodynia” value in data set [2] is recorded as “did not produce any pain relieving effects”. Moreover, the Withdrawal threshold in data set [2] (30 min after administration) turned out to be 10 g; in data set [2] (60 min after administration) it was 10 g; in data set [2] (90 min after administration) it was 11 g; in data set [2] (120 min after administration) it was 10 g; in data set [2] (150 min after administration), 10 g; in data set [2] (180 min after administration) it was 10 g. Also, the results for the Withdrawal threshold in data set [4] (setting [7]), in data set [4] (setting [8]) and in data set [4] (setting [9]) were 34 g, 15 g and 19 g, respectively. Moreover, in data set [2], the “mean pain relieving effect of the test article when compared to the vehicle as a percentage, Mechanical Allodynia” value is −13%. Also, in data set [3] (repeated administration), the “difference between the pain relieving values before and after treatment, Thermal Hyperalgesia” value came to 3.2 s. For the same molecule, the “difference between the pain relieving values before and after treatment, Mechanical Allodynia” value in data set [4] (repeated administration) was determined as 4 g. Besides, the “relief of neuropathic pain (in words)” value in data set [5] is reported as “can partially relieve neuropathic pain”.

On to `NC(=O)N1c2ccccc2C=Cc2ccccc21` [carbamezepine], for which the “increase in the risk of blood dyscrasias” value in data set [6] (post-marketing studies, patients taking carbamezepine) is recorded as “five- to eight-fold increase”. The “patients with a 25% decrease in their white blood cell count” value in data set [6] (usually reverses within the first 4 months of therapy) is 7%.
